As a reminder, the inhibition is the drop in the measured response relative to a control, in per cent. By IC50 is commonly meant the point on the concentration scale where inhibition reaches its midpoint. Higher therefore signals weaker potency in that assay.

Assay [1] in a line: Inhibition of fMLF/CB-induced superoxide anion generation in human neutrophil at 10 uM relative to control. In kind it is functional.
A short description of assay [2]: Inhibition of fMLF/CB-induced superoxide anion generation in human neutrophil. The format is functional, tissue-based.
In a further assay the test system is Neutrophil. The experiment in a line: Inhibition of elastase release in fMLF/CB-stimulated human neutrophil at 10 µM.

Active and inactive are the calls of the source. The rule behind the calls is not given here.

On to `O=c1cc(N2CCOCC2)oc2c(-c3ccccc3)cccc12` [LY-294002], for which the inhibition at 10 µM in assay [1] worked out at 93.4%. The molecule further showed an IC50 in assay [2] of 1.3 µM.

`COc1ccc2c(=O)cc(Oc3ccccc3OC)oc2c1`: the inhibition at 10 µM in assay [1] was 3.8%. In addition, in assay [2], the IC50 was > 10 µM. Moreover, the inhibition entry in the assay on Neutrophil is “inactive”.

Turning to `COc1ccc2c(=O)cc(Oc3cccc(O)c3)oc2c1`, the inhibition at 10 µM in assay [1] is 6.9%. Besides, the IC50 in assay [2] is > 10 µM. For the same molecule, the inhibition entry in the assay on Neutrophil was “inactive”.

`COc1ccc2c(=O)cc(Oc3ccc(O)c(OC)c3)oc2c1`: the inhibition at 10 µM in assay [1] was found to be 71.3%. The molecule further registered an IC50 in assay [2] of 5.2 µM. Moreover, the inhibition entry in the assay on Neutrophil was “inactive”.

Regarding `COc1cccc(Oc2cc(=O)c3ccc(OC)cc3o2)c1`, the inhibition at 10 µM in assay [1] stood at 46.8%. The IC50 in assay [2] is > 10 µM. In addition, the inhibition entry in the assay with Neutrophil is “inactive”.

Turning to `COc1cc(OC)c2c(=O)cc(Oc3ccccc3OC)oc2c1`, the inhibition at 10 µM in assay [1] was 2.5%. In assay [2], the IC50 was > 10 µM. The inhibition entry with Neutrophil is “inactive”.

For the molecule `COc1ccc(Oc2cc(=O)c3c(OC)cccc3o2)cc1OC`, in assay [1], the inhibition at 10 µM amounted to 12.8%. For the same molecule, in assay [2], the IC50 is > 10 µM. The inhibition result with Neutrophil is “inactive”.

Consider `COc1cc(OC)c2c(=O)cc(Sc3cccc(F)c3)oc2c1`, for which the inhibition at 10 µM in assay [1] was found to be 61%. For the same molecule, the IC50 in assay [2] came to 7 µM. For the same molecule, in the assay with Neutrophil, the inhibition result was “inactive”.

On to `COc1cc(OC)cc(Oc2cc(=O)c3c(OC)cccc3o2)c1`, for which, in assay [1], the inhibition at 10 µM was -0.4%. Further, the IC50 in assay [2] was > 10 µM. Besides, the inhibition entry with Neutrophil is “inactive”.

Turning to `COc1cc(OC)cc(Oc2cc(=O)c3c(OC)cc(OC)cc3o2)c1`, in assay [1], the inhibition at 10 µM amounted to 27.5%. Moreover, in assay [2], the half-inhibitory concentration (IC50) is > 10 µM. The inhibition result in the assay with Neutrophil is “inactive”.

For `COc1ccc2c(=O)cc(Sc3cccc(F)c3)oc2c1`, the inhibition at 10 µM in assay [1] amounted to 70.9%. In addition, in assay [2], half-maximal inhibition (IC50) required 5 µM. Moreover, the inhibition entry in the assay on Neutrophil is “inactive”.

In the case of `COc1ccc2oc(Sc3cccc(F)c3)cc(=O)c2c1`, in assay [1], the inhibition at 10 µM was 17.3%. Further, in assay [2], the IC50 is > 10 µM. Besides, the inhibition result in the assay with Neutrophil was “inactive”.

For the molecule `COc1cccc(Oc2cc(=O)c3c(OC)cc(OC)cc3o2)c1`, in assay [1], the inhibition at 10 µM came out at 22.4%. The IC50 in assay [2] was > 10 µM. In addition, the inhibition result with Neutrophil is “inactive”.

As to `COc1cc(OC)c2c(=O)cc(Oc3ccc(OC)c(OC)c3)oc2c1`, the inhibition at 10 µM in assay [1] came out at 7.8%. Besides, in assay [2], the IC50 is > 10 µM. Further, the inhibition result in the assay on Neutrophil is “inactive”.

On to `COc1cc2oc(Sc3cccc(F)c3)cc(=O)c2c(OC)c1OC`, for which the inhibition at 10 µM in assay [1] turned out to be 47.5%. For the same molecule, in assay [2], the 50% inhibitory concentration (IC50) was > 10 µM. Moreover, in the assay with Neutrophil, the inhibition entry was “inactive”.

As to `COc1cccc2oc(Sc3cccc(F)c3)cc(=O)c12`, the inhibition at 10 µM in assay [1] was 10.6%. In addition, the IC50 in assay [2] is > 10 µM. Also, in the assay on Neutrophil, the inhibition result was “inactive”.

(Values after ChEMBL document CHEMBL4706673, “The study on structure-activity relationship between chromone derivatives and inhibition of superoxide anion generating from human neutrophils” (Bioorg Med Chem Lett, 2021).)
